Laboratory results: the METLIN SMRT retention time set (Domingo-Almenara et al. 2019)

experiment: gradient 5% acetonitrile 3 min, to 50% in 2 min, to 85% in 15 min, held 3 min, 100 µL/min; conditions: column: Zorbax Extend-C18 2.1 x 50 mm; eluents: water / acetonitrile, 0.1% formic acid
Summary of the method: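 Retention times come from adduct peaks that were picked computationally and then checked by hand. The standards, pure and pooled in mixtures of ~100 molecules, were run on a Zorbax Extend-C18 column (2.1 × 50 mm, 1.8 μm) at 100 μL/min with water and acetonitrile, each with 0.1% formic acid. Detection was by quadrupole time-of-flight mass spectrometry in positive and negative ionization mode, with a dead volume of 40 μL and a dwell volume of 900 μL.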

Row | Structure (SMILES) | RP-LC retention time [s]
1 | CC(C)NS(=O)(=O)c1ccc(Cl)c(-c2nnc(-c3ccccc3)o2)c1 | 977
2 | O=C(NCc1cccc(F)c1)C1CCCN(c2nnc3c(Cl)cccn23)C1 (stereo not given) | 701
3 | COc1ccccc1-c1csc(-c2nnn(-c3ccc(C)cc3)c2N)n1 | 1160
4 | CCOc1ccc(C(=O)N2C[C@@H]3C[C@H]2C[C@@H]3NS(C)(=O)=O)cc1 | 658
5 | CCc1nn2c(CNC(=O)c3cccnc3)c(-c3ccccc3)nc2s1 | 700
6 | CC(C)(C)c1ccc(C(=O)NC2(c3nc(-c4ccncc4)no3)CCCCC2)cc1 | 1190
7 | Cc1cccc2nnc(N3CCCC(C(=O)N4CCN(c5ccccc5)CC4)C3)n12 (stereo not given) | 614
8 | CCCNc1cc(N2CCC(CCC(=O)NCCc3cccnc3)CC2)ncn1 | 542
9 | Cc1nc(-c2noc(-c3ccc(F)cc3)n2)cn1CC(=O)Nc1cccc(F)c1 | 897
10 | CCOc1ccc(N2CC(c3nc(-c4cccc(OC)c4OC)no3)CC2=O)cc1 (stereo not given) | 922
11 | COc1ccc(N2CC(c3noc(-c4ccc(OC)c(F)c4)n3)CC2=O)cc1 (stereo not given) | 856
12 | CC1Oc2ccc(-c3csc(NC(=O)C4CCCCC4)n3)cc2N(C)C1=O (stereo not given) | 1040
13 | CCC(=O)N1CCc2cc(CNC(=O)c3ccnn3C)ccc21 | 665
14 | COc1cccc(-c2csc(Cc3nc(-c4ccc(Br)cc4)no3)n2)c1 | 1280
15 | CCN1CCN(Cc2ccc(NC3=NS(=O)(=O)C(c4ccc(OC)cc4)=C3C)cc2)CC1 | 622
16 | O=C(NCc1ccc(Br)cc1)c1ccc2ncnc(N3CCCC3)c2c1 | 679
17 | Cc1cccc(-c2nc(CNC(=O)CCC(F)(F)F)no2)c1 | 870
18 | CCCNc1cc(N2CCC(CCC(=O)Nc3ccccc3)CC2)ncn1 | 704
19 | CCc1ccc(OCc2nc(CCN(C)C(=O)Cc3cccs3)no2)cc1 | 1000
20 | CCOc1ccc(NC(=O)NCc2nc(-c3ccc(OCC)cc3)oc2C)cc1 | 656
21 | Cn1cnnc1SCCNC(=O)CNC(=O)c1ccc(=O)[nH]c1 | 494
22 | CCCCN1C(=O)C(NC(=O)c2ccccc2OC)(C(F)(F)F)C(C(C)=O)=C1C (stereo not given) | 976
23 | Cc1cc(NC(=O)Cn2c(-c3ccc(F)cc3)ncc(C#N)c2=O)ccc1Br | 1080

Row | Structure (SMILES) | RP-LC retention time [s]
24 | O=C(CN1C(=O)CC(c2ccccc2)=Nc2cccnc21)Nc1ccc(F)cc1F | 949
25 | COc1ccc(NC(=O)CCc2cccc3[nH]ccc23)c(OC)c1 | 831
26 | Fc1ccc(-c2nc3ncccn3c2NCc2ccc(Cl)cc2)cc1 | 782
27 | COc1ccccc1CNC(=O)c1cc(C)nn1-c1ccccc1 | 809
28 | Cc1cccc(CNC(=O)C2(c3ccc(NS(C)(=O)=O)cc3)CCCCC2)c1 | 921
29 | Brc1cccc(-c2nnc(Cc3nc(-c4cccnc4)no3)o2)c1 | 845
30 | CNC(=O)CN1C(=O)C2CCCCN2c2ccc(S(=O)(=O)N(C)C)cc21 (stereo not given) | 690
31 | CCOc1ccc(NC(=O)CSc2nccc(N3CCN(c4cccc(OC)c4)CC3)n2)cc1 | 765
32 | O=C(c1cc2ccccc2o1)N1CCC(CNS(=O)(=O)C2CC2)CC1 | 712
33 | CCOC(=O)C1CCN(C(=O)C2CCCN(c3cnc4nc(C)c(C)nc4c3)C2)CC1 (stereo not given) | 689
34 | CCCN1C(=O)c2cc(S(=O)(=O)N3CCCCCC3)ccc2Oc2cccnc21 | 1180
35 | Cc1ccccc1CNC(=O)C1(C)CCN(S(=O)(=O)c2ccc(C3CCCCC3)cc2)CC1 | 1310
36 | CCOc1ccc(C(=O)N2CCC[C@@H]2C(=O)NCCc2csc(C)n2)cc1 | 846
37 | CCOC(=O)c1c(S(=O)(=O)N2CCC(C(=O)Nc3ccc(F)c(F)c3)CC2)c(C)n(C)c1C | 890
38 | CN(C)S(=O)(=O)c1ccc2c(c1)N(CC(=O)NCc1ccc(F)cc1)C(=O)C1CCCCN21 (stereo not given) | 896
39 | COc1ccc(-n2c(=O)c(C(=O)Nc3cccc(Cl)c3)c(O)c3cccnc32)cc1 | 1370
40 | CC1=CC2(C)NC(=O)C(C)C12 (stereo not given) | 710
41 | Cn1ncc(N2CCC(C(=O)N3CCc4ccccc43)C2)cc1=O (stereo not given) | 714
42 | CN(C)C(=O)c1ccc2c(c1)CCN2C(=O)C1CCC1 | 700
43 | COc1cccc(CNC(=O)C2CCCN(c3nn4c(=O)c5c(nc4s3)CCCC5)C2)c1 (stereo not given) | 737
44 | CC(NC(=O)c1c(O)c2sccc2n(Cc2ccccc2)c1=O)c1ccccc1 (stereo not given) | 1350
45 | Cc1ccsc1C(=O)N1CCN(C(=O)c2cc(-c3ccccn3)n[nH]2)CC1 | 631
46 | CC(C)n1c(C2CCN(C(=O)c3cccc(N(C)C)c3)C2)nc2ccncc21 (stereo not given) | 529

Row | Structure (SMILES) | RP-LC retention time [s]
47 | Cc1cccc(-c2nnc(-c3cc(S(=O)(=O)N(C)C)ccc3F)o2)c1 | 994
48 | COc1cccc(-c2nc(Cn3ccn4nc(-c5ccccc5)cc4c3=O)c(C)o2)c1OC | 1020
49 | O=C(CSc1nc(-c2ccccc2Cl)ns1)Nc1nccs1 | 818
50 | COc1ccc(-c2nc3cnccn3c2Nc2ccc(C)cc2C)cc1 | 971
51 | CCOC(=O)c1ccc(NC(=O)c2cc(C)nn2-c2ccccc2)cc1 | 937
52 | CC(=O)N1C[C@@H]2CCCN3CCC[C@@H]([C@H]23)[C@H]1CCCC(=O)N(C)CCc1c(C)nn(C)c1C | 556
53 | O=C(Nc1nc(-c2ccc(F)cc2)cs1)c1c(-c2ccccc2)nc2n1CCS2(=O)=O | 1000
54 | CCCn1cc(C(=O)Nc2ccc3c(c2)OCO3)c(=O)c2ccc(C)nc21 | 1100
55 | O=C(Cn1nc2n(c1=O)CCCC2)N1CCN(c2ccccc2)CC1 | 638
56 | O=C(Cc1cccc2ccccc12)NCCOc1ccc(F)cc1 | 860
57 | Cc1nnc(CNC(=O)Cc2csc(Nc3ncccn3)n2)o1 | 560
58 | CCc1cc(=O)n(CC(=O)Nc2ccc(Br)cc2)c(N2CCOCC2)n1 | 829
59 | CN(CC1CCOC1)C(=O)Nc1ccccc1Br (stereo not given) | 736
60 | CCc1nnc(NC(=O)CSc2nccn2Cc2ccc3c(c2)OCO3)s1 | 586
61 | CCS(=O)(=O)N1CC(=O)N(c2cc(C)cc(C)c2)C(C)(C(=O)NCc2ccc(F)cc2)C1 (stereo not given) | 892
62 | O=S(=O)(Cc1cccc(F)c1)NCCc1ccsc1 | 852
63 | Cn1cnc(S(=O)(=O)NCCc2noc(-c3ccccc3)n2)c1 | 703
64 | Cc1noc(C)c1S(=O)(=O)N1CCC(c2noc(-c3cccnc3)n2)C1 (stereo not given) | 796
65 | CC1CCN(c2cc(-n3cnc(C(=O)N4CCN(c5ccccn5)CC4)c3)ncn2)CC1 | 675
66 | Cc1c(Cl)cccc1NS(=O)(=O)c1cc2c(s1)CCN(C(=O)C1CCC1)C2 | 916
67 | Cc1noc(COC2CCN(C(=O)c3ccc4ccccc4n3)CC2)n1 | 707
68 | Cc1noc(-c2cc(=O)n(CC(=O)Nc3cccc(Cl)c3C)c3ccccc23)n1 | 923
69 | CN(C)c1cccc(C(=O)Nc2cc(-c3cccs3)no2)c1 | 970

Row | Structure (SMILES) | RP-LC retention time [s]
70 | COC(=O)c1ccc2c(=O)n(-c3ccccc3)c(N3CCN(c4ccccn4)CC3)nc2c1 | 684
71 | Cc1c(-c2cccc(NC(=O)C3CCCCC3)c2)nc2ncccn12 | 663
72 | CCOC(=O)c1ccc(NC(=O)N2CCC(CN3CCOCC3)CC2)cc1 | 610
73 | COc1ccc(OC)c(CNC(=O)C2CCCN(c3nnc4c(Cl)cccn34)C2)c1 (stereo not given) | 722
74 | O=C(CCc1nnc2c3cc(-c4ccc(F)cc4)nn3ccn12)NCCN1CCCC1 | 605
75 | O=C(CCC1CCCC1)NCCC1CCN(C(=O)Nc2cc(F)ccc2F)CC1 | 924
76 | CCNC(=O)C1Cn2cccc2C(=O)N1C (stereo not given) | 569
77 | C=CCNC(=O)c1cnn(-c2cc(-c3nc(C(C)C)no3)ccn2)c1C | 776
78 | Cn1cccc1C(=O)C(=O)N1CCN(c2ccc(Cl)cc2)CC1 | 904
79 | COc1ccc(NS(=O)(=O)c2cc3n(c2)CCCN(C)C3=O)cc1 | 650
80 | N#Cc1cccc(-c2cn3c(n2)N(C(=O)COc2ccccc2)CCC3)c1 | 961
81 | CCn1ccc2c(cc(C(=O)Nc3cc(Cl)ccc3OC)n2C)c1=O | 1150
82 | Cc1cccc(CN2CCCN(c3ncccc3-c3nc(C(C)C)no3)CC2)c1 | 733
83 | CCOc1ccc(C(=O)N2CCC(c3cc(N)on3)CC2)cc1 | 686
84 | Cc1nc2ccccc2c(=O)n1Cc1noc(-c2ccc3c(c2)OCO3)n1 | 831
85 | CCCCN(CC)C(=O)C1CCCN(c2ccc(-c3ccc(C)cc3)nn2)C1 (stereo not given) | 796
86 | CN(C)c1cccc(C(=O)N2CCN(C(=O)c3nnn4c3COC(c3ccccc3)C4)CC2)c1 (stereo not given) | 799
87 | Cc1ccc(-c2ccc3nn(CC(=O)Nc4ccc(C)cc4Br)c(=O)n3n2)cc1 | 960
88 | CCCCCCCCN[C@H](C)[C@@H](O)c1ccc(SC(C)C)cc1 | 1030
89 | O=C(NCc1csc(C2CCN(C(=O)c3c(F)cccc3F)CC2)n1)C1CCC1 | 740
90 | O=C(Cc1ccc(F)cc1)NCCOc1cccc(C(F)(F)F)c1 | 880
